Results taken from patent publication US6399745B1, “Use of leptin antagonists for treating insulin resistance in type II diabetes” (Aventis Pharma Deutschland GmbH, priority 1996, dated 2002).

Columns and labels:
isolated rat adipocytes [1] = assay: Antagonism of fragment 116-167 to the leptin effect: insulin-stimulated glucose transport; type: cell-based; conditions: Insulin only, 5 nM (no leptin, no fragment)
Method: Adipocytes were prepared from the epididymal fat tissue of male Wistar rats (140-160 g, Hoechst AG breeding station, Kastengrund) by means of digesting with collagenase (Rodbell, 1964, J. Biol. Chem. 239, 375-380), washed twice with KRH (25 mM Hepes free acid, 25 mM Hepes sodium salt, 80 mM NaCl, 1 mM MgSO4, 2 mM CaCl2, 6 mM KCl, 1 mM sodium pyruvate, 0.5% BSA) and once with DMEM (Dulbecco's minimal essential medium), supplemented with 5.5 mM glucose, 20 mM Hepes (pH 7.4), 2% fetal calf serum, 1% BSA, 50 U of penicillin/ml, […], by means of flotation (800×g, 1 min, in small plastic tubes), and finally diluted to a volume of 20 ml of DMEM/g wet weight of the fat tissue (cell titer: approximately 2.5×10^5 cells/ml). […]
Glucose transport was measured as the specific uptake of the non-metabolizable glucose analog 2-deoxyglucose (Muller and Wied, 1993, Diabetes 42, 1852-1867). […] After 10 ml of scintillation fluid (water-based) had been added, the radioactivity associated with the cells was measured. […]
Isolated rat adipocytes were incubated for 17.5 h in primary culture in the presence or absence of leptin (10 nM) and increasing concentrations of leptin fragment 116-167. […] The stimulation factor for insulin was calculated as the ratio between the insulin-stimulated activity and the basal activity. […]

isolated rat adipocytes [2] = assay: Glucose transport (2-deoxyglucose uptake) in isolated rat adipocytes after primary culture with leptin, basal and insulin-stimulated; type: cell-based
Method: Adipocytes were prepared from the epididymal fat tissue of male Wistar rats (140-160 g, Hoechst AG breeding station, Kastengrund) by means of digesting with collagenase (Rodbell, 1964, J. Biol. Chem. 239, 375-380), washed twice with KRH (25 mM Hepes free acid, 25 mM Hepes sodium salt, 80 mM NaCl, 1 mM MgSO4, 2 mM CaCl2, 6 mM KCl, 1 mM sodium pyruvate, 0.5% BSA) and once with DMEM (Dulbecco's minimal essential medium), supplemented with 5.5 mM glucose, 20 mM Hepes (pH 7.4), 2% fetal calf serum, 1% BSA, 50 U of penicillin/ml, […], by means of flotation (800×g, 1 min, in small plastic tubes), and finally diluted to a volume of 20 ml of DMEM/g wet weight of the fat tissue (cell titer: approximately 2.5×10^5 cells/ml).
The adipocytes were incubated, at 37° C. for 15-18 h under an atmosphere of 5% CO2 and with gentle shaking, in supplemented (see above) DMEM in the presence of 100 nM phenylisopropyladenosine (4 ml of DMEM to 1 ml of cells, cell titer approximately 5×10^4 cell/ml, in 50 ml sterile polypropylene: tubes) and in the presence or absence of leptin. The adipocytes were subsequently washed three times with cold KRH and adjusted to a cell titer of approximately 3×10^5 cells/ml by adding 0.7 ml of glucose-free KRH to the cell layer which remained after the complete removal of the last washing solution. In order to determine the capacity of the adipocytes to be stimulated by insulin, and their sensitivity to insulin, following the primary culture, the washed adipocytes were incubated at 37° C. for 20 min in the absence or presence of human insulin (0.02-50 nM final concentration), and glucose transport or lipogenesis was then measured.
Glucose transport was measured as the specific uptake of the non-metabolizable glucose analog 2-deoxyglucose (Muller and Wied, 1993, Diabetes 42, 1852-1867). 50 μl of the adipocyte suspension in KRH, which suspension had or had not been preincubated with insulin (see above), were incubated, at 25° C. for 5 min, with 50 μl of KRH which was supplemented with 2-deoxy-D-[2,6-^3H]glucose (0.5 μCi, 0.2 mM). The incubation mixtures were transferred to thin soft-plastic centrifuge tubes, each of which already contained 200 μl of dinonyl phthalate oil, and immediately centrifuged (2,000×g, 30 sec). Using special shears, the tubes were severed within the oil layer (in the vicinity of the upper edge) and the upper halves of the tubes, together with the cell layers which had in each case been floated onto the oil layer, were transferred to scintillation vials. After 10 ml of scintillation fluid (water-based) had been added, the radioactivity associated with the cells was measured. In order to correct for 2-deoxyglucose which had become enclosed in the cell interstices, or had diffused into the cells, in a non-specific manner, the radioactivity of cells which had been preincubated with cytochalasin B (20 μM) was subtracted from the total cell-associated radioactivity of each individual incubation mixture (Gliemann et al., 1972, Biochim. Biophys. Acta 286, 1-9).
Isolated rat adipocytes were incubated for 15 h in primary culture in the presence or absence of increasing concentrations of leptin. […] The stimulation factor for insulin was calculated as the ratio between insulin-stimulated and basal activities. Each value represents the mean from two independent adipocyte cultures with activity being determined two or three times in each case.
The cells were then washed and tested for the stimulation of glucose transport by differing concentrations of insulin. Glucose transport activity is given as a “dpm value” of the 2deoxy-[^3H]glucose which is specifically associated with the cells. Each value represents the mean from two independent adipocyte cultures with the activity being determined four times in each case.

For “Insulin: human insulin used to stimulate adipocytes [reference compound]”, the “Glucose Transport, stimulation factor for insulin (stimulated/basal)” value (isolated rat adipocytes [1]) was 13.4, the “stimulation of glucose transport by insulin” value (isolated rat adipocytes [2]; insulin 10 nM) was “approximately 14 fold” and the “insulin concentration at which effects can already be detected in vitro” value (isolated rat adipocytes [2]; insulin dose/effect curves, glucose transport) was 0.1 to 0.2 nM. The “glucose transport, uptake of 3H-labeled 2-deoxyglucose” value (“glucose transport, uptake” for short) (isolated rat adipocytes [2]; no leptin, insulin 0.02 nM) was 784 dpm, the “glucose transport, uptake” value (isolated rat adipocytes [2]; no leptin, insulin 0.05 nM) was 1285 dpm and the “glucose transport, uptake” value (isolated rat adipocytes [2]; no leptin, insulin 0.1 nM) was 2406 dpm. The “glucose transport, uptake” value (isolated rat adipocytes [2]; no leptin, insulin 0.2 nM) was 4762 dpm, the “glucose transport, uptake” value (isolated rat adipocytes [2]; no leptin, insulin 0.5 nM) was 6976 dpm and the “glucose transport, uptake” value (isolated rat adipocytes [2]; no leptin, insulin 1 nM) was 7981 dpm. For the same substance, the “glucose transport, uptake” value (isolated rat adipocytes [2]; no leptin, insulin 2 nM) was 8576 dpm, the “glucose transport, uptake” value (isolated rat adipocytes [2]; no leptin, insulin 5 nM) was 8956 dpm and the “glucose transport, uptake” value (isolated rat adipocytes [2]; no leptin, insulin 10 nM) was 9064 dpm. For the same substance, the “glucose transport, uptake” value (isolated rat adipocytes [2]; no leptin, insulin 50 nM) was 9072 dpm and the “Glucose Transport, stimulation factor for insulin (stimulated/basal)” value (isolated rat adipocytes [2]; no leptin, Insulin concentration: 5 nM) was 13.4.
